Measurements taken from publication PMC10889159, “Synthesis and Antitumor Activity Evaluation of Novel Echinatin Derivatives with a 1,3,4-Oxadiazole Moiety” (International Journal of Molecular Sciences, 2024).

What was measured:
KU812 = assay: CCK8 antiproliferative assay, KU812; format: cell-based; details: Homo sapiens, CCK8, 48 h, mean ± SD, n = 3
Protocol: (§1) For all biological assays, all of the synthesized compounds were dissolved in DMSO. The cytotoxicity of all of the target compounds against the HCT116, K562, KU812, and HT-29 cells was determined by an CCK8 assay in vitro using adriamycin and echinatin as the controls. About 3000 cells per well were seeded in a 96-well plate and incubated for 24 h. Then, the cells were stimulated with different concentrations of test compounds for 48 h. The CCK8 solution (100 µL 0.5 mg/mL^−1) was added to each well, and the cells were incubated for another 4 h. Then, the absorbance of the samples was measured at 450 nm. The IC50 values were calculated according to the Logit method after obtaining the inhibitory rate. All experiments were repeated three times.

K562 = assay: CCK8 antiproliferative assay, K562; format: cell-based; details: Homo sapiens, CCK8, 48 h, mean ± SD, n = 3
Protocol: as §1

HT-29 = assay: CCK8 antiproliferative assay, HT-29; format: cell-based; details: Homo sapiens, CCK8, 48 h, mean ± SD, n = 3
Protocol: as §1

HCT116 = assay: CCK8 antiproliferative assay, HCT116; format: cell-based; details: Homo sapiens, HCT-116; CCK8, 48 h, mean ± SD, n = 3
Protocol: as §1

c-KIT = c-KIT (Homo sapiens, UniProt P10721); assay: Biochemical c-KIT activity assay (ADP-Glo); details: 20 μM ATP, read-out: IC50 for c-KIT inhibition
Protocol: The enzymatic activities of c-KIT were determined by in vitro kinase assays using the ADP-Glo reagent (Promega, Madison, WI, USA) according to the manufacturer’s instructions. Briefly, 250 ng of c-KIT protein was incubated with compounds in 10 μL of reaction buffer (40 mM Tris−HCl, pH 7.4, 2 mM MnCl2, 2 mM DTT, 20 mM MgCl2, 0.1 mg/mL bovine serum albumin, 1 mM Na3VO4) containing 20 μΜ ATP and 40 μM poly (Glu4-Tyr1) as substrates at 30 °C for 150 min. The ADP-Glo reagent was then added, and the mixture was incubated at 25 °C for 40 min. The kinase detection reagent was added for another 30 min at 25 °C. The converted ADP was determined by luminescence measurement using a Wallac Vector 1420 multilabel counter (PerkinElmer).

Sequence of c-KIT (P10721 26-976): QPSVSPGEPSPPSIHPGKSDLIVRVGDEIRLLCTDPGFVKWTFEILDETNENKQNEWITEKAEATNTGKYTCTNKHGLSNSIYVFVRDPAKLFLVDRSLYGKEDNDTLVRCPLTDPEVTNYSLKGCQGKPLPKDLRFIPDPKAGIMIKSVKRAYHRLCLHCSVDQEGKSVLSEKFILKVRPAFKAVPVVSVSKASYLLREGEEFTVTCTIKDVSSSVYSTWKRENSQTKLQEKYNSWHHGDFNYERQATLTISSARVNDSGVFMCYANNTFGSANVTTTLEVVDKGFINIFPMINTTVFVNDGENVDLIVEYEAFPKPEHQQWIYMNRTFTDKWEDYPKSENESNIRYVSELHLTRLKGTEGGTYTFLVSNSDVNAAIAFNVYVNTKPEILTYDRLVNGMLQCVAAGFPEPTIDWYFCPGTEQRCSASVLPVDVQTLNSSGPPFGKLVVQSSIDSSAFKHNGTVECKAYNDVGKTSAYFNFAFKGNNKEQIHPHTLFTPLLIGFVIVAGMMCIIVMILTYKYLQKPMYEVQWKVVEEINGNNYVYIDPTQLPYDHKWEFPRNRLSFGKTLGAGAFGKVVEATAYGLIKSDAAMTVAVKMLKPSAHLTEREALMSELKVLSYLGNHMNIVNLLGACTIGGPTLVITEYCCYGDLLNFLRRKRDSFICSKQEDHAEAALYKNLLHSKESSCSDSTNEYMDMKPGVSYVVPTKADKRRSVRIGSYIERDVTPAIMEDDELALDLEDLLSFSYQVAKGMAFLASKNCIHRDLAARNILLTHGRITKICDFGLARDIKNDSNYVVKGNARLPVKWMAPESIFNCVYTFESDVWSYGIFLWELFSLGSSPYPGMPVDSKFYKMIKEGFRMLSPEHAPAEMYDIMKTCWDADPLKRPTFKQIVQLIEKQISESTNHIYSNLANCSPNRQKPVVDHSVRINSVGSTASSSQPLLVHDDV

SMILES	IC50 (KU812) [µM]	IC50 (K562) [µM]	IC50 (HT-29) [µM]	IC50 (HCT116) [µM]	melting point [°C]	IC50 (c-KIT) [nM]
COc1cccc2c1C(=O)c1c(O)c3c(c(O)c1C2=O)C[C@@](O)(C(=O)CO)C[C@@H]3O[C@H]1C[C@H](N)[C@H](O)[C@H](C)O1 [Adriamycin, reference compound]	4.14 ± 0.53	4.22 ± 0.44	2.7 ± 0.71	1.5 ± 0.19	–	–
COc1cc(O)ccc1/C=C/C(=O)c1ccc(OCc2nnc(Nc3ccc(C)cc3)o2)cc1 [Compound T1, (E)-3-(4-Hydroxy-2-methoxyphenyl)-1-{4-{[5-(p-tolylamino)-1,3,4-oxadiazol-2-yl]methoxy}phenyl}propen-one]	9.55 ± 0.17	22.05 ± 0.12	7.1 ± 0.45	4.85 ± 0.32	186.1 to 189.4	–
COc1ccc(Nc2nnc(COc3ccc(C(=O)/C=C/c4ccc(O)cc4OC)cc3)o2)cc1 [Compound T2, (E)-3-(4-Hydroxy-2-methoxyphenyl)-1-{4-{{5-[(4-methoxyphenyl)amino]-1,3,4-oxadiazol-2-yl}methoxy}phenyl}p-ropenone]	13.3 ± 0.39	> 30	8.78 ± 0.12	3.97 ± 0.53	212.6 to 213.6	–
CCOc1ccc(Nc2nnc(COc3ccc(C(=O)/C=C/c4ccc(O)cc4OC)cc3)o2)cc1 [Compound T3]	17.2 ± 0.67	15.5 ± 1.09	5.16 ± 0.11	2.47 ± 0.56	200.1 to 200.4	237
COc1cc(O)ccc1/C=C/C(=O)c1ccc(OCc2nnc(Nc3ccc(OC(F)(F)F)cc3)o2)cc1 [Compound T5]	12.45 ± 0.02	> 30	3.64 ± 0.21	3.94 ± 0.33	227.6 to 228.4	–
COc1cc(O)ccc1/C=C/C(=O)c1ccc(OCc2nnc(Nc3ccc(F)cc3)o2)cc1 [Compound T6, (E)-1-{4-{{5-[(4-Fluorophenyl)amino]-1,3,4-oxadiazol-2-yl}methoxy}phenyl}-3-(4-hydroxy-2-methoxyphen-yl)propenone]	16.9 ± 1.58	> 30	> 30	4.39 ± 0.71	211.8 to 214.1	–
COc1cc(O)ccc1/C=C/C(=O)c1ccc(OCc2nnc(Nc3ccc(Cl)cc3)o2)cc1 [Compound T7, (E)-1-{4-{{5-[(4-Chlorophenyl)amino]-1,3,4-oxadiazol-2-yl}methoxy}phenyl}-3-(4-hydroxy-2-methoxyphen-yl)propenone]	17.5 ± 1.77	> 30	> 30	2.08 ± 0.54	211.4 to 212.1	–
COc1cc(O)ccc1/C=C/C(=O)c1ccc(OCc2nnc(Nc3ccc(C(C)(C)C)cc3)o2)cc1 [Compound T8]	12 ± 1.28	19.48 ± 0.12	4.94 ± 0.25	6.51 ± 0.19	197.1 to 198.5	613
COc1cc(O)ccc1/C=C/C(=O)c1ccc(OCc2nnc(Nc3ccccc3C)o2)cc1 [Compound T9]	> 30	> 30	> 30	10 ± 0.93	206.5 to 209.2	–
COc1cc(O)ccc1/C=C/C(=O)c1ccc(OCc2nnc(Nc3cccc(C)c3)o2)cc1 [Compound T10, (E)-3-(4-Hydroxy-2-methoxyphenyl)-1-{4-{[5-(m-tolylamino)-1,3,4-oxadiazol-2-yl]methoxy}phenyl}propen-one]	> 30	> 30	> 30	7.62 ± 1.23	187.6 to 190.8	–
CCOc1ccccc1Nc1nnc(COc2ccc(C(=O)/C=C/c3ccc(O)cc3OC)cc2)o1 [Compound T11, (E)-1-{4-{{5-[(2-Ethoxyphenyl)amino]-1,3,4-oxadiazol-2-yl}methoxy}phenyl}-3-(4-hydroxy-2-methoxyphe-nyl)propenone]	> 30	> 30	> 30	> 30	175.4 to 188.3	–
COc1cc(O)ccc1/C=C/C(=O)c1ccc(OCc2nnc(Nc3ccccc3F)o2)cc1 [Compound T12, (E)-1-{4-{{5-[(2-Fluorophenyl)amino]-1,3,4-oxadiazol-2-yl}methoxy}phenyl}-3-(4-hydroxy-2-methoxyphen-yl)propenone]	> 30	> 30	12.8 ± 0.98	6.14 ± 1.45	186.2 to 187.4	–
COc1cc(O)ccc1/C=C/C(=O)c1ccc(OCc2nnc(Nc3ccccc3Cl)o2)cc1 [Compound T13, (E)-1-{4-{{5-[(2-Chlorophenyl)amino]-1,3,4-oxadiazol-2-yl}methoxy}phenyl}-3-(4-hydroxy-2-methoxyphen-yl)propenone]	> 30	> 30	13.9 ± 0.67	10.2 ± 0.87	191.3 to 191.8	–
COc1cc(O)ccc1/C=C/C(=O)c1ccc(OCc2nnc(Nc3cccc(Cl)c3)o2)cc1 [Compound T14, (E)-1-{4-{{5-[(3-Chlorophenyl)amino]-1,3,4-oxadiazol-2-yl}methoxy}phenyl}-3-(4-hydroxy-2-methoxyphen-yl)propenone]	> 30	> 30	13.2 ± 0.53	9.83 ± 1.98	225 to 225.9	–
COc1cc(O)ccc1/C=C/C(=O)c1ccc(OCc2nnc(Nc3ccc(C)cc3C)o2)cc1 [Compound T15, (E)-1-{4-{{5-[(2,4-Dimethylphenyl)amino]-1,3,4-oxadiazol-2-yl}methoxy}phenyl}-3-(4-hydroxy-2-methoxy-phenyl)propenone]	> 30	> 30	> 30	> 30	192.9 to 194.1	–
COc1cc(O)ccc1/C=C/C(=O)c1ccc(OCc2nnc(Nc3ccc(F)cc3F)o2)cc1 [Compound T16, (E)-1-{4-{{5-[(2,4-Difluorophenyl)amino]-1,3,4-oxadiazol-2-yl}methoxy}phenyl}-3-(4-hydroxy-2-methoxy-phenyl)propenone]	> 30	> 30	> 30	> 30	223.4 to 223.9	–
COc1cc(O)ccc1/C=C/C(=O)c1ccc(OCc2nnc(Nc3c(F)cccc3F)o2)cc1 [Compound T17, (E)-1-{4-{{5-[(2,6-Difluorophenyl)amino]-1,3,4-oxadiazol-2-yl}methoxy}phenyl}-3-(4-hydroxy-2-methoxy-phenyl)propenone]	> 30	> 30	> 30	> 30	193 to 194.3	–
COc1cc(O)ccc1/C=C/C(=O)c1ccc(OCc2nnc(Nc3c(Cl)cccc3Cl)o2)cc1 [Compound T18, (E)-1-{4-{{5-[(2,6-Dichlorophenyl)amino]-1,3,4-oxadiazol-2-yl}methoxy}phenyl}-3-(4-hydroxy-2-methoxy-phenyl)propenone]	> 30	> 30	> 30	> 30	172.3 to 174.6	–
COc1cc(O)ccc1/C=C/C(=O)c1ccc(O)cc1 [Echinatin]	13.8 ± 0.33	> 30	10.4 ± 0.87	4.54 ± 0.76	–	–
FC(F)(F)c1ccc(CNc2ccc(Cc3c[nH]c4ncccc34)cn2)cc1 [PLX647, reference compound]	–	–	–	–	–	68
